Measurements as given in ChEMBL document CHEMBL4613308, “Screen of Unfocused Libraries Identified Compounds with Direct or Synergistic Antibacterial Activity” (ACS Med Chem Lett, 2020).
Converted amounts (≈) assume the structure as drawn.

How the values were obtained:
Escherichia coli [1] = experiment: Synergistic antibacterial activity against Escherichia coli CCUG in presence of 0.5 times MIC of colistin by microdilution broth method; assay type: functional
Klebsiella pneumoniae [2] = experiment: Potentiation of colistin-induced antibacterial activity against Klebsiella pneumoniae ATCC 13833 assessed as fold reduction in colistin MIC by microdilution broth method relative to colistin MIC; assay type: functional
Acinetobacter baumannii [3] = experiment: Potentiation of colistin-induced antibacterial activity against Acinetobacter baumannii ATCC 17978 assessed as fold reduction in colistin MIC by microdilution broth method relative to colistin MIC; assay type: functional
Pseudomonas aeruginosa [4] = experiment: Antibacterial activity against Pseudomonas aeruginosa ATCC 27853 assessed as bacterial growth inhibition by agar diffusion assay; assay type: functional
Escherichia coli [5] = experiment: Potentiation of colistin-induced antibacterial activity against Escherichia coli CCUG assessed as fold reduction in colistin MIC in by microdilution broth method relative to colistin MIC; assay type: functional
Klebsiella pneumoniae [6] = experiment: Synergistic antibacterial activity against Klebsiella pneumoniae ATCC 13833 in presence of 0.5 times MIC of colistin by microdilution broth method; assay type: functional
Acinetobacter baumannii [7] = experiment: Synergistic antibacterial activity against Acinetobacter baumannii ATCC 17978 in presence of 0.5 times MIC of colistin by microdilution broth method; assay type: functional
Acinetobacter baumannii [8] = experiment: Antibacterial activity against Acinetobacter baumannii ATCC 17978 assessed as bacterial growth inhibition by agar diffusion assay; assay type: functional
Klebsiella pneumoniae [9] = experiment: Antibacterial activity against Klebsiella pneumoniae ATCC 13833 assessed as bacterial growth inhibition by agar diffusion assay; assay type: functional
Escherichia coli [10] = experiment: Antibacterial activity against Escherichia coli CCUG assessed as bacterial growth inhibition by agar diffusion assay; assay type: functional
Acinetobacter baumannii [11] = experiment: Synergistic antibacterial activity against multidrug-resistant Acinetobacter baumannii N50 in presence of 2 ug/ml colistin by microdilution broth method; assay type: functional
Klebsiella pneumoniae [12] = experiment: Synergistic antibacterial activity against colistin-resistant Klebsiella pneumoniae SI-004Bo clinical isolate in presence of 2 ug/ml colistin by microdilution broth method (reference value: 64 ug/ml); assay type: functional
Klebsiella pneumoniae [13] = experiment: Synergistic antibacterial activity against colistin-resistant Klebsiella pneumoniae SI-081R clinical isolate in presence of 2 ug/ml colistin by microdilution broth method (reference value: 256 ug/ml); assay type: functional
HeLa = experiment: Cytotoxicity against human HeLa cells assessed as reduction in cell viability assay by CellTox-Green assay; assay type: cell-based
Enterobacter cloacae [14] = experiment: Antibacterial activity against multidrug-resistant Enterobacter cloacae Z19 clinical isolate assessed as bacterial growth inhibition by agar diffusion assay; assay type: functional
Acinetobacter baumannii [15] = experiment: Antibacterial activity against Acinetobacter baumannii AC-54/97 clinical isolate assessed as bacterial growth inhibition by agar diffusion assay; assay type: functional
Staphylococcus aureus = experiment: Antibacterial activity against Staphylococcus aureus ATCC 25923 assessed as bacterial growth inhibition by agar diffusion assay; assay type: functional
Streptococcus pyogenes = experiment: Antibacterial activity against Streptococcus pyogenes ATCC 12344 assessed as bacterial growth inhibition by agar diffusion assay; assay type: functional
Escherichia coli [16] = experiment: Antibacterial activity against multidrug-resistant Escherichia coli Z25 clinical isolate assessed as bacterial growth inhibition by agar diffusion assay; assay type: functional
Pseudomonas aeruginosa [17] = experiment: Antibacterial activity against multidrug-resistant Pseudomonas aeruginosa VR-143/97 clinical isolate assessed as bacterial growth inhibition by agar diffusion assay; assay type: functional
Bacillus spizizenii = experiment: Antibacterial activity against Bacillus subtilis ATCC 6633 assessed as bacterial growth inhibition by agar diffusion assay; assay type: functional
Enterococcus faecalis = experiment: Antibacterial activity against Enterococcus faecalis ATCC 29212 assessed as bacterial growth inhibition by agar diffusion assay; assay type: functional
Enterobacter cloacae [18] = experiment: Antibacterial activity against multidrug-resistant Enterobacter cloacae VA 417/02 clinical isolate assessed as bacterial growth inhibition by agar diffusion assay; assay type: functional

| SMILES | MIC (Escherichia coli [1]) | log2FC (Klebsiella pneumoniae [2]) | log2FC (Acinetobacter baumannii [3]) | MIC (Pseudomonas aeruginosa [4]) | log2FC (Escherichia coli [5]) | MIC (Klebsiella pneumoniae [6]) | MIC (Acinetobacter baumannii [7]) | MIC (Acinetobacter baumannii [8]) | MIC (Klebsiella pneumoniae [9]) | MIC (Escherichia coli [10]) | MIC (Enterobacter cloacae [14]) | MIC (Acinetobacter baumannii [15]) | MIC (Staphylococcus aureus) | MIC (Streptococcus pyogenes) | MIC (Escherichia coli [16]) | MIC (Pseudomonas aeruginosa [17]) | MIC (Bacillus spizizenii) | MIC (Enterococcus faecalis) | MIC (Enterobacter cloacae [18]) | also measured |
| --- | --- | --- | --- | --- | --- | --- | --- | --- | --- | --- | --- | --- | --- | --- | --- | --- | --- | --- | --- | --- |
| CCCCCCc1ccc(OCCCCCCCC(=O)NCCO)cc1O | 8 µg/mL | 7 | 5 | > 512 µg/mL | 6 | 4 µg/mL | 16 µg/mL | > 512 µg/mL | > 512 µg/mL | > 512 µg/mL | – | – | – | – | – | – | – | – | – | – |
| CCCCCCC(C)(C)c1cc(O)cc(OCCCCCCCC(=O)NCCO)c1 | 2 µg/mL | 7 | 7 | > 512 µg/mL | 8 | 4 µg/mL | 4 µg/mL | > 512 µg/mL | > 512 µg/mL | > 512 µg/mL | – | – | – | – | – | – | – | – | – | – |
| Cc1c(C(=O)N(C)CCN(C)C)nn(-c2ccc(Cl)cc2)c1-n1cccc1 | 64 µg/mL | 4 | 5 | > 512 µg/mL | 3 | 32 µg/mL | 16 µg/mL | > 512 µg/mL | > 512 µg/mL | > 512 µg/mL | – | – | – | – | – | – | – | – | – | – |
| CCCCCc1cc(OC)cc(OCCCCCCCC(=O)NCCO)c1 | 4 µg/mL | 6 | 7 | > 512 µg/mL | 7 | 8 µg/mL | 4 µg/mL | > 512 µg/mL | > 512 µg/mL | > 512 µg/mL | – | – | – | – | – | – | – | – | – | MIC (Acinetobacter baumannii [11]): 8 µg/mL; MIC (Klebsiella pneumoniae [12]): > 64 µg/mL; MIC (Klebsiella pneumoniae [13]): 18 µg/mL; IC50 (HeLa): > 20 µg/mL |
| CCOC(=O)c1cn(CC)c2cc(N)c(F)cc2c1=O | – | – | – | > 256 µg/mL | – | – | – | 256 µg/mL (≈ 920 µM) | 128 µg/mL (≈ 460 µM) | 32 µg/mL (≈ 115 µM) | > 256 µg/mL | > 256 µg/mL | 256 µg/mL (≈ 920 µM) | 64 µg/mL (≈ 230 µM) | > 256 µg/mL | > 256 µg/mL | 32 µg/mL (≈ 115 µM) | 256 µg/mL (≈ 920 µM) | > 256 µg/mL | – |
| CCCCCCc1ccc(O)cc1OCCCCCCCCCCC(=O)NCCO | 4 µg/mL | 6 | 5 | > 512 µg/mL | 7 | 8 µg/mL | 16 µg/mL | > 512 µg/mL | > 512 µg/mL | > 512 µg/mL | – | – | – | – | – | – | – | – | – | – |
| CC(C)(C)n1cc(C(=O)O)c(=O)c2cc(F)c(Br)cc21 | – | – | – | 32 µg/mL (≈ 93.5 µM) | – | – | – | 8 µg/mL (≈ 23.4 µM) | 1 µg/mL (≈ 2.92 µM) | 8 µg/mL (≈ 23.4 µM) | > 256 µg/mL | > 256 µg/mL | 8 µg/mL (≈ 23.4 µM) | 8 µg/mL (≈ 23.4 µM) | > 256 µg/mL | > 256 µg/mL | ≤ 0.12 µg/mL | 2 µg/mL (≈ 5.85 µM) | 2 µg/mL (≈ 5.85 µM) | – |
| O=C(O)c1cn(C2CC2)c2cc(Br)c(F)cc2c1=O | – | – | – | 8 µg/mL (≈ 24.5 µM) | – | – | – | 0.5 µg/mL (≈ 1.53 µM) | ≤ 0.12 µg/mL | 0.25 µg/mL (≈ 0.767 µM) | > 256 µg/mL | 256 µg/mL (≈ 785 µM) | 4 µg/mL (≈ 12.3 µM) | 4 µg/mL (≈ 12.3 µM) | > 256 µg/mL | 256 µg/mL (≈ 785 µM) | ≤ 0.12 µg/mL | 4 µg/mL (≈ 12.3 µM) | 0.25 µg/mL (≈ 0.767 µM) | – |
| CC(C)(C)n1cc(C(=O)O)c(=O)c2cc(F)c(-c3ccc(F)cc3F)cc21 | – | – | – | 64 µg/mL (≈ 171 µM) | – | – | – | 8 µg/mL (≈ 21.3 µM) | 4 µg/mL (≈ 10.7 µM) | 16 µg/mL (≈ 42.6 µM) | > 256 µg/mL | > 256 µg/mL | 2 µg/mL (≈ 5.33 µM) | 1 µg/mL (≈ 2.66 µM) | > 256 µg/mL | > 256 µg/mL | ≤ 0.12 µg/mL | 2 µg/mL (≈ 5.33 µM) | 4 µg/mL (≈ 10.7 µM) | – |
| CCOC(=O)c1cn2c3c(cccc3c1=O)OCC2CC (centres undefined) | – | – | – | > 256 µg/mL | – | – | – | 256 µg/mL (≈ 891 µM) | 128 µg/mL (≈ 446 µM) | > 256 µg/mL | > 256 µg/mL | > 256 µg/mL | > 256 µg/mL | > 256 µg/mL | > 256 µg/mL | > 256 µg/mL | 128 µg/mL (≈ 446 µM) | 256 µg/mL (≈ 891 µM) | > 256 µg/mL | – |
| COc1ccc(-c2cc3c(cc2F)c(=O)c(C(=O)O)cn3C(C)(C)C)cc1 | – | – | – | > 256 µg/mL | – | – | – | 16 µg/mL (≈ 43.3 µM) | 16 µg/mL (≈ 43.3 µM) | > 256 µg/mL | > 256 µg/mL | > 256 µg/mL | 0.25 µg/mL (≈ 0.677 µM) | ≤ 0.12 µg/mL | > 256 µg/mL | > 256 µg/mL | ≤ 0.12 µg/mL | 0.5 µg/mL (≈ 1.35 µM) | 128 µg/mL (≈ 347 µM) | – |
| CCCCCc1cc(O)cc(OCCCCCCCCCCC(=O)NC(CO)CO)c1 | 8 µg/mL | 6 | 7 | > 512 µg/mL | 6 | 8 µg/mL | 4 µg/mL | > 512 µg/mL | > 512 µg/mL | > 512 µg/mL | – | – | – | – | – | – | – | – | – | – |
| CC(C)(C)n1cc(C(=O)O)c(=O)c2cc(F)c(-c3cccnc3)cc21 | – | – | – | 4 µg/mL (≈ 11.8 µM) | – | – | – | 0.5 µg/mL (≈ 1.47 µM) | 0.25 µg/mL (≈ 0.735 µM) | 2 µg/mL (≈ 5.88 µM) | 256 µg/mL (≈ 752 µM) | 64 µg/mL (≈ 188 µM) | ≤ 0.12 µg/mL | ≤ 0.12 µg/mL | 256 µg/mL (≈ 752 µM) | 64 µg/mL (≈ 188 µM) | ≤ 0.12 µg/mL | 0.5 µg/mL (≈ 1.47 µM) | 0.5 µg/mL (≈ 1.47 µM) | – |
| CCOC(=O)c1c(O)nc2c(C)cccc2c1O | 64 µg/mL | 5 | 3 | > 512 µg/mL | 3 | 16 µg/mL | 64 µg/mL | > 512 µg/mL | > 512 µg/mL | > 512 µg/mL | – | – | – | – | – | – | – | – | – | – |
| CC(C)c1ccc2c(c1)c(O)c(C(C)C)c(=O)n2CC(C)(C)C | 32 µg/mL | 3 | 4 | > 512 µg/mL | 4 | 64 µg/mL | 32 µg/mL | > 512 µg/mL | > 512 µg/mL | > 512 µg/mL | – | – | – | – | – | – | – | – | – | – |
| CCCCCCc1ccc(O)cc1OCCCCCC(=O)NCCO | – | – | 6 | > 512 µg/mL | – | – | 8 µg/mL | > 512 µg/mL | > 512 µg/mL | > 512 µg/mL | – | – | – | – | – | – | – | – | – | – |
| CC(C)(C)n1cc(C(=O)O)c(=O)c2cc(F)c(Sc3ccccc3)cc21 | – | – | – | 256 µg/mL (≈ 689 µM) | – | – | – | 32 µg/mL (≈ 86.2 µM) | 8 µg/mL (≈ 21.5 µM) | 16 µg/mL (≈ 43.1 µM) | 256 µg/mL (≈ 689 µM) | > 256 µg/mL | 2 µg/mL (≈ 5.38 µM) | 1 µg/mL (≈ 2.69 µM) | > 256 µg/mL | 128 µg/mL (≈ 345 µM) | ≤ 0.12 µg/mL | 2 µg/mL (≈ 5.38 µM) | 16 µg/mL (≈ 43.1 µM) | – |
